Data set [1] deals with Bacillus pumilus BOD. Briefly: Activity as a function of the presence of urea (ABTS oxidation). Conditions: urea 0 to 6 M, 100 mM citrate/phosphate buffer, pH 3.
Procedure: The experiments are carried out at 37° C. on a Varian spectrophotometer in a 0.1 M citrate/phosphate buffer, pH 3. […] The test is triggered by adding enzyme.
Data set [2] concerns the target T1, Bacillus pumilus bilirubin oxidase (BOD), wild type, strain SAFR-032, SEQ ID No. 2 (C-terminal 6xHis tag) (Bacillus pumilus, UniProt A8FAG9).
T1 sequence (A8FAG9 with tags, fused parts or gaps): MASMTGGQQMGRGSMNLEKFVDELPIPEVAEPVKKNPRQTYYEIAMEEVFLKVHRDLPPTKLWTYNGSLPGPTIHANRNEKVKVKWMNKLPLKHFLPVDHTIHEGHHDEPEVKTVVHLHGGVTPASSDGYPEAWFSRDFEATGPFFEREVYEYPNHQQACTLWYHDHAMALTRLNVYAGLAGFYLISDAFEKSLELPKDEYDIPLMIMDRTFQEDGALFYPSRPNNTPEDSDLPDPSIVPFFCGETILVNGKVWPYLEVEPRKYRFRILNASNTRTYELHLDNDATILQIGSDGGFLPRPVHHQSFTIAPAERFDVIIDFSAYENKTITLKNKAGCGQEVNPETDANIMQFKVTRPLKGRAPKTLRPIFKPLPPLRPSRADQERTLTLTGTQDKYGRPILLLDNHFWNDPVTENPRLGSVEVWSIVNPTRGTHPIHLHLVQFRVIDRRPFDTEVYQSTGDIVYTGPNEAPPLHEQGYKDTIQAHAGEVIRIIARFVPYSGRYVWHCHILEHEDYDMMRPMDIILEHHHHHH
The data set can be described thus: Steady-state kinetics of 2,6-dimethoxyphenol (DMP) oxidation by B. pumilus BOD. The note with it: 37° C., 50 mM sodium phosphate buffer, pH 6.8.
Procedure: (§3) The experiments are carried out at 37° C. on a Varian spectrophotometer in a 50 mM sodium phosphate buffer, pH 6.8. The 2,6-dimethoxyphenol concentration varies in the test from 0 to 4000 μM. The test, triggered by adding the enzyme, consists in following the oxidation of the DMP at 468 nm by coloroimetric change (ε468nm=14.8 mM^−1 cm^−1).

In data set [3] the target is T1, Bacillus pumilus bilirubin oxidase (BOD), wild type, strain SAFR-032, SEQ ID No. 2 (C-terminal 6xHis tag). Briefly: Steady-state kinetics of conjugated bilirubin oxidation by B. pumilus BOD. The class given is biochemical. Conditions: 37° C., 50 mM sodium phosphate buffer, pH 4.8.
In data set [4] the test system is Bacillus pumilus BOD. The data set can be described thus: Activity as a function of the presence of DTT or EDTA (SGZ oxidation). Type of data set: biochemical. Conditions: SGZ 50 μM, 37° C., pH 6.2. How it is done:
(§1) The concentration of SGZ, diluted in methanol, is fixed in the test at 50 μM. […] Table III below collates the results obtained, presented in relative activity form.

For data set [5], the target named is T1, Bacillus pumilus bilirubin oxidase (BOD), wild type, strain SAFR-032, SEQ ID No. 2 (C-terminal 6xHis tag). The data set can be described thus: Activity (SGZ oxidation) as a function of the presence of DTT or of EDTA. The class given is biochemical. The note with it: 50 μM SGZ, 37° C., pH 6.2, read-out: Relative activity. How it is done: as §1
Data set [6] has the same target. The data set can be described thus: Steady-state kinetics of syringaldazine (SGZ) oxidation by B. pumilus BOD. Type of data set: biochemical. Conditions: 37° C., 50 mM citrate/phosphate buffer, pH 6.2; model with competitive inhibition; in 1/s. How it is done:
(§2) The SGZ concentration, diluted in methanol, varies in the test from 0 to 300 μM.

Substrate in data set [7]: C=CC1=C(C)/C(=C/c2[nH]c(Cc3[nH]c(/C=C4\NC(=O)C(C)=C4C=C)c(C)c3CCC(=O)O)c(CCC(=O)O)c2C)NC1=O
Briefly: Steady-state kinetics of unconjugated bilirubin oxidation by B. pumilus BOD. The class given is biochemical, Bacillus pumilus. Conditions: other: 37° C., 50 mM sodium phosphate buffer, pH 7.

Substrate in data set [8]: COc1cc(/C=N/N=C/c2cc(OC)c(O)c(OC)c2)cc(OC)c1O
The data set can be described thus: Steady-state kinetics of syringaldazine (SGZ) oxidation by B. pumilus BOD. Type of data set: biochemical, Bacillus pumilus. Conditions: other: 37° C., 50 mM citrate/phosphate buffer, pH 6.2, model with competitive inhibition. How it is done:
as §2

Substrate in data set [9]: COc1cccc(OC)c1O
The data set can be described thus: purified protein, by the assay type. The note with it: other: 37° C., 50 mM sodium phosphate buffer, pH 6.8.
Procedure: as §3

Data set [10] can be described thus: Remazol Brilliant Blue R (RBBR) discoloration activity. Type of data set: biochemical. The note with it: RBBR 80 mg.l^−1, 37° C., 50 mM potassium phosphate buffer, pH 6, absence or presence of 10 μM ABTS. How it is done:
The RBBR concentration is fixed at 80 mg.l^−1 in each tank. The test, triggered by adding 10 μg of enzyme, consists in following, over time, the discoloration of the RBBR dye at 593 nm.

Data set [11] can be described thus: Stability of the enzyme as a function of temperature. The class given is physicochemical. Conditions: incubation at 80° C., residual activity on ABTS. How it is done: The enzyme is preincubated at a concentration of 10 mg/ml in a dry bath at 80° C. […] The test is triggered by adding enzyme.
A short description of data set [12]: Specific activity for ABTS. The note with it: BOD according to the invention. The class given is biochemical. How it is done:
The enzyme is diluted so as to measure a slope between 0.05 and 0.3 OD420nm/min.

For `NC(N)=O` [urea], the figures for the “effect of urea on BOD activity (ABTS oxidation)” value with Bacillus pumilus BOD [1] (25° C.) and with Bacillus pumilus BOD [1] (37° C.) were “activating effect” and “not found”, respectively.

As for `COc1cccc(OC)c1O` [DMP, 2,6-Dimethoxyphenol], in data set [2], the kss came to 57.3 s⁻¹.

Usually Km stands for the concentration of substrate that gives half-maximal velocity. As for conjugated bilirubin, in [3], the Km worked out at 35.1 µM and the kcat stood at 66.8 s⁻¹.

With `O[C@@H](CS)[C@@H](O)CS` [DTT], the “Relative activity (%)” value turned out to be 99 ± 4% in the data set with Bacillus pumilus BOD [4] (DTT 0.001 mM); 93 ± 2% in the data set on Bacillus pumilus BOD [4] (DTT 0.005 mM); 93 ± 4% with Bacillus pumilus BOD [4] (DTT 0.01 mM); 94 ± 3% in the data set with Bacillus pumilus BOD [4] (DTT 0.015 mM); 85 ± 1% in the data set on Bacillus pumilus BOD [4] (DTT 0.03 mM); 81 ± 4% in the data set with Bacillus pumilus BOD [4] (DTT 0.05 mM).

For the molecule `OC(CS)C(O)CS` (centres unmarked) [DTT], in data set [5] (DTT 0.001 mM), the activity at 1 µM worked out at 99 ± 4%. Moreover, the activity at 5 µM in data set [5] (DTT 0.005 mM) stood at 93 ± 2%. Besides, in data set [5] (DTT 0.01 mM), the activity at 10 µM amounted to 93 ± 4%. Further, in data set [5] (DTT 0.015 mM), the activity at 15 µM turned out to be 94 ± 3%. Moreover, in data set [5] (DTT 0.03 mM), the activity at 30 µM worked out at 85 ± 1%. The activity at 50 µM in [5] (DTT 0.05 mM) came out at 81 ± 4%.

Regarding `COc1cc(/C=N/N=C/c2cc(OC)c(O)c(OC)c2)cc(OC)c1O` [SGZ, Syringaldazine], the kcat in data set [6] is 116.1.

`O=C(O)CN(CCN(CC(=O)O)CC(=O)O)CC(=O)O` [EDTA]: the activity at 100 µM in [5] (EDTA 0.1 mM) was 97 ± 1%. In [5] (EDTA 1 mM), the activity at 1000 µM was 99 ± 5%. In addition, the activity at 10000 µM in data set [5] (EDTA 10 mM) was found to be 95 ± 1%. In data set [5] (EDTA 25 mM), the activity at 25000 µM is 98 ± 3%. Further, in data set [5] (EDTA 50 mM), the activity at 50000 µM came to 99 ± 4%. Also, in data set [5] (EDTA 75 mM), the activity at 75000 µM is 95 ± 2%. In addition, the activity at 100000 µM in [5] (EDTA 100 mM) is 95 ± 1%. Further, in data set [5] (EDTA 125 mM), the activity at 125000 µM came to 89 ± 3%. Further, the “Relative activity (%)” value in the data set on Bacillus pumilus BOD [4] (EDTA 0.1 mM) was 97 ± 1%; in the data set with Bacillus pumilus BOD [4] (EDTA 1 mM), 99 ± 5%; in the data set with Bacillus pumilus BOD [4] (EDTA 10 mM) it was 95 ± 1%; in the data set with Bacillus pumilus BOD [4] (EDTA 25 mM), 98 ± 3%; in the data set on Bacillus pumilus BOD [4] (EDTA 50 mM) it was 99 ± 4%; with Bacillus pumilus BOD [4] (EDTA 75 mM) it was 95 ± 2%. The “Relative activity (%)” value in the data set with Bacillus pumilus BOD [4] (EDTA 100 mM) is 95 ± 1%; with Bacillus pumilus BOD [4] (EDTA 125 mM), 89 ± 3%.

B1: Bacillus pumilus bilirubin oxidase (BOD), wild type, strain SAFR-032, SEQ ID No. 2 (C-terminal 6xHis tag) (Bacillus pumilus SAFR-032) (protein)
chain: T1 sequence (A8FAG9 with tags, fused parts or gaps)
B1: the Km in [7] amounted to 22 µM; in data set [8] it was 45.6 µM; in data set [9] it was 822 µM. Further, in [7], the kcat came to 70 s⁻¹.

B2: Bacillus pumilus BOD: wild-type bilirubin oxidase of Bacillus pumilus strain SAFR032, SEQ ID No. 2, produced in E. coli with C-terminal 6HIS tag (protein, listed as Bacillus pumilus)
chain: T1 sequence (A8FAG9 with tags, fused parts or gaps)
modifications: C-terminal 6His tag
On to B2, for which the “discolouring activity on dyes used in the textile industry” value in data set [10] is recorded as “discolouring activity”. In [11], the heat stability entry is listed as “very good heat stability”. In addition, the “specific activity for ABTS” value in data set [12] stood at 375 U/mg.

Source of the values: patent publication US9617577B2, “Bacillus pumilus bilirubin oxidase and applications thereof” (CENTRE NATIONAL DE LA RECHERCHE SCIENTIFIQUE, priority 2010, dated 2017).
